According to US20160115146A1, “3-CARBOXY SUBSTITUTED COUMARIN DERIVATIVES WITH A POTENTIAL UTILITY FOR THE TREATMENT OF CANCER DISEASES” (UNIVERSITE CATHOLIQUE DE LOUVAIN, priority 2013, published 2016):

Tests used:
SiHa cells [1] = assay: Cytotoxicity/anti-proliferative MTT assay, lactate as energy source; format: cell-based; settings: Homo sapiens, DMEM 10 mM L-lactate without glucose, 72 h
Protocol: SiHa cells (human cervix squamous carcinoma) were routinely cultured in DMEM containing serum and antibiotics as previously described in Sonveaux, P. et al. J. Clin. Invest 2008 118, 3930. Two distinct media were used for the cytotoxicity assay, either DMEM containing 25 mM D-glucose (without pyruvate) or DMEM containing 10 mM L-lactate (without glucose). SiHa cells were seeded in flat-bottom 96-well plates in normal DMEM. After 6 h of incubation, the culture medium was replaced by 100 μl of glucose- or lactate-containing medium and incubated overnight for metabolic adaptation. SiHa cells were treated with the compounds of the invention at a concentration range of 0.01 μM to 100 μM. After a 72 h incubation at 37° C., cell medium was removed and replaced by freshly prepared MTT in PBS (1 mg/ml, 100 μl/well). After a 3 h incubation at 37° C., the plates were centrifuged (1000 g, 10 min at 4° C.) and the supernatant was removed before addition of DMSO (100 μl/well). Plates were kept for 10 min in the dark before reading at the spectrophotometer (Victor X4).

SiHa cells [2] = assay: Lactate consumption assay (inhibition of lactate influx); format: cell-based; settings: Homo sapiens, 24 h treatment in lactate-containing medium
Protocol: SiHa cells were seeded on flat-bottom 24-well plates (500 000 cells/well) in normal DMEM. After 6 h of incubation, the culture medium was replaced by 1 ml of DMEM containing 10 mM lactate and incubated overnight for metabolic adaptation. Cells were then treated for 24 h with increasing concentrations of compounds (0.1, 1, 10 and 100 μM) in lactate-containing medium at 37° C. The supernatants were then centrifuged using deproteinizing columns (15 min, 10000 g at 4° C.) and lactate concentration was determined using the enzymatic assay commercialized by CMA Microdialysis AB on a CMA600 analyzer (Aurora Borealis).

SiHa cells [3] = assay: [14C]-lactate uptake assay (inhibition of lactate influx); format: cell-based; settings: Homo sapiens, 0.2 h, 2 μM [14C]-lactate for 12 min
Protocol: After 6 h of incubation, the culture medium was replaced by 1 ml of DMEM containing 10 mM lactate and incubated overnight for metabolic adaptation.

SiHa cells xenograft [4] = assay: In vivo anti-cancer activity against cervix cancer (SiHa cells xenograft model); settings: nude NMRI mice, 3 mg/kg daily IP, FIG. 1(A)
Protocol: 7 weeks old female nude mice (Janvier®, 4-5 mice per group, Balb-c or NMRI) with various human cancer cell lines xenografts were used. SiHa cells were subcutaneously injected (10^6 to 2.10^6 (10^6 or 2.10^6) cells in sterile NaCl 0.9% per mouse) on the left flank of the mice (100 μl/mouse). […] Tumor volume was calculated as following: (length×width^2×π)/6 and expressed in mm^3. Tumor growth delay graphs and statistical analysis (Two-way ANOVA) were performed using GraphPad Prism 4 software.

HCT116 cells xenograft = assay: In vivo anti-cancer activity against colon cancer (HCT116 cells xenograft model); settings: nude NMRI mice, 3 mg/kg daily IP, FIG. 2
Protocol: (§1) Seven weeks old female nude mice (Janvier®, 4-5 mice per group, NMRI), were used for the experiments. HCT116 cells were subcutaneously injected (2.10^6 cells in sterile NaCl 0.9% per mouse) on the left flank of the mice (100 μl/mouse). The treatment of the mice with compounds of the invention was started when tumor xenografts reached approximately 5 mm of length and width (Caliper® measurement). […] Tumor volume was calculated as the following: (length×width^2×π)/6 and expressed in mm^3. Tumor growth delay graphs and statistical analysis (Two-way ANOVA) were performed using GraphPad Prism 4 software.

SiHa cells xenograft [5] = assay: In vivo anti-cancer activity in combination with cisplatin against cervix cancer (SiHa cells xenograft model); settings: nude NMRI mice, cisplatin 5 mg/kg IP day 0 and 7 plus compound 3 mg/kg daily IP day 1-6 and 8-11, FIG. 3
Protocol: as §1, with “SiHa” for “HCT116”

O=C(O)c1cc2ccc(OCc3ccc(Cl)c(Cl)c3)cc2oc1=O [cpd 19, 7-((3,4-dichlorobenzyl)oxy)-2-oxo-2H-chromene-3-carboxylic acid]
CC50 (SiHa cells [1]): 68400 nM

CN(C)c1ccc2cc(C(=O)O)c(=O)oc2c1 [cpd 35, 7-(dimethlamino)-2-oxo-2H-chromene-3-carboxylic acid]
IC50 (SiHa cells [2]): 1400 nM | CC50 (SiHa cells [1]): 2900 nM

O=C(O)c1cc2ccc(OCc3ccc(C(F)(F)F)cc3)cc2oc1=O [cpd 28, 2-oxo-7-((4-(trifluoromethyl)benzyl)oxy)-2H-chromene-3-carboxylic acid]
CC50 (SiHa cells [1]): 6860 nM

O=C(O)c1cc2ccc(OCc3cc(C(F)(F)F)cc(C(F)(F)F)c3)cc2oc1=O [cpd 3, 7-((3,5-bis(trifluoromethyl)benzyl)oxy)-2-oxo-2H-chromene-3-carboxylic acid]
CC50 (SiHa cells [1]): 600 nM

O=C(O)c1cc2ccc(NCc3ccccc3)cc2oc1=O [cpd 39, 7-(benzylamino)-2-oxo-2H-chromene-3-carboxylic acid]
CC50 (SiHa cells [1]): 1790 nM

O=C(O)c1cc2ccc(OCc3ccccc3)cc2oc1=O [cpd 9, 7-(benzyloxy)-2-oxo-2H-chromene-3-cartboxylic acid]
IC50 (SiHa cells [2]): 1900 nM | CC50 (SiHa cells [1]): 9100 nM

CN(Cc1cccc(F)c1)c1ccc2cc(C(=O)O)c(=O)oc2c1 [cpd 47, 7-((3-fluorobenzyl)(methyl)amino)-2-oxo-2H-chromene-3-carboxylic acid]
CC50 (SiHa cells [1]): 40 nM

O=C(O)c1cc2ccc(N(Cc3ccccc3)Cc3ccccc3)cc2oc1=O [cpd 51, 7-(dibenzylamino)-2-oxo-2H-chromene-3-carboxylic acid]
CC50 (SiHa cells [1]): 12700 nM

CN(CC1CCOCC1)c1ccc2cc(C(=O)O)c(=O)oc2c1 [cpd 50, 7-(methyl((tetrahydro-2H-pyran-4-yl)methyl)amino)-2-oxo-2H-chromene-3-carboxylic acid]
CC50 (SiHa cells [1]): 100 nM

O=C(O)c1cc2ccc(OCc3ccc(F)cc3)cc2oc1=O [cpd 26, 7-((4-fluorobenzyl)oxy)-2-oxo-2H-chromene-3-carboxylic acid]
IC50 (SiHa cells [2]): 1250 nM | CC50 (SiHa cells [1]): 3900 nM

COc1cccc(CN(C)c2ccc3cc(C(=O)O)c(=O)oc3c2)c1 [cpd 49, 7-((3-methoxybenzyl)(methyl)amino)-2-oxo-2H-chromene-3-carboxylic acid]
CC50 (SiHa cells [1]): 70 nM

O=C(O)c1cc2ccc(N3CCCC3)cc2oc1=O [cpd 33, 2-oxo-7-(pyrrolidin-1-yl)-2H-chromene-3-carboxylic acid]
CC50 (SiHa cells [1]): 14300 nM

CCCN(Cc1ccccc1)c1ccc2cc(C(=O)O)c(=O)oc2c1 [cpd 44, 7-(benzyl(propyl)amino)-2-oxo-2H-chromene-3-carboxylic acid]
CC50 (SiHa cells [1]): 11100 nM

O=C(O)c1cc2ccc(OCCc3ccccc3)cc2oc1=O [cpd 15, 2-oxo-7-phenethoxy-2H-chromene-3-carboxylic acid]
IC50 (SiHa cells [2]): 2400 nM | CC50 (SiHa cells [1]): 5600 nM

COc1ccc2cc(C(=O)O)c(=O)oc2c1 [cpd 2, 7-methoxy-2-oxo-2H-chromene-3-carboxylic acid]
IC50 (SiHa cells [2]): 2300 nM | CC50 (SiHa cells [1]): 9800 nM

O=C(O)c1cc2ccc(OCc3cccc(F)c3)cc2oc1=O [cpd 7, 7-((3-fluorobenzyl)oxy)-2-oxo-2H-chromene-3-carboxylic acid]
CC50 (SiHa cells [1]): 1170 nM

O=C(O)c1cc2ccc(OCn3nnc4ccccc43)cc2oc1=O [cpd 24, 7-((1H-benzo[d][1,2,3]triazol-1-yl)methoxy)-2-oxo-2H-chromene-3-carboxylic acid]
CC50 (SiHa cells [1]): 1100 nM

COc1ccc(OC)c(COc2ccc3cc(C(=O)O)c(=O)oc3c2)c1 [cpd 22]
CC50 (SiHa cells [1]): 702 nM

CC(C)CN(C)c1ccc2cc(C(=O)O)c(=O)oc2c1 [cpd 45, 7-(isobutyl(methyl)amino)-2-oxo-2H-chromene-3-carboxylic acid]
CC50 (SiHa cells [1]): 220 nM

CC(C)CN(Cc1ccccc1)c1ccc2cc(C(=O)O)c(=O)oc2c1 [cpd 43, 7-(benzyl(isobutyl)amino)-2-oxo-2H-chromene-3-carboxylic acid]
CC50 (SiHa cells [1]): 16300 nM

O=C(O)c1cc2ccc(OCc3ccccc3Cl)cc2oc1=O [cpd 11, 7-((2-chlorobenzyl)oxy)-2-oxo-2H-chromene-3-carboxylic acid]
CC50 (SiHa cells [1]): 4230 nM

O=C(O)c1cc2ccc(OC3Cc4ccccc4C3)cc2oc1=O [cpd 30, 7-((2,3-dihydro-1H-inden-2-yl)oxy)-2-oxo-2H-chromene-3-carboxylic acid]
CC50 (SiHa cells [1]): 7800 nM

O=C(O)c1cc2ccc(N3CCOCC3)cc2oc1=O [cpd 34, 7-morpholino-2-oxo-2H-chromene-3-carboxylic acid]
IC50 (SiHa cells [2]): 7900 nM | CC50 (SiHa cells [1]): 17500 nM

CN(Cc1cccs1)c1ccc2cc(C(=O)O)c(=O)oc2c1 [cpd 46, 7-(methyl(thiophen-2-ylmethyl)amino)-2-oxo-2H-chromene-3-carboxylic acid]
CC50 (SiHa cells [1]): 210 nM

O=C(O)c1cc2cc3c4c(c2oc1=O)CCCN4CCC3 [cpd 37, 11-oxo-2,3,5,6,7,11-hexahydro-1H-pyrano[2,3 - f]pyrido[3,2,1-ij]quinoline-10-carboxylic acid]
IC50 (SiHa cells [2]): 1300 nM | CC50 (SiHa cells [1]): 1200 nM

CN(CC1CCCCC1)c1ccc2cc(C(=O)O)c(=O)oc2c1 [cpd 48, 7-((cyclohexylmethyl)(methyl)amino)-2-oxo-2H-chromene-3-carboxylic acid]
CC50 (SiHa cells [1]): 200 nM

O=C(O)c1cc2ccc(OCc3cccc4ccccc34)cc2oc1=O [cpd 5, 7-(naphthalen-1-ylmethoxy) 2-oxo-2H-chromene-3-carboxylic acid]
CC50 (SiHa cells [1]): 1090 nM

O=C(Nc1ccc2cc(C(=O)O)c(=O)oc2c1)c1ccccc1 [cpd 116, 7-benzamido-2-oxo-2H-chromene-3-carboxylic acid]
CC50 (SiHa cells [1]): 1500 nM

COc1cccc(COc2ccc3cc(C(=O)O)c(=O)oc3c2)c1 [cpd 13]
CC50 (SiHa cells [1]): 4600 nM

CC(C)=CCC/C(C)=C/COc1ccc2cc(C(=O)O)c(=O)oc2c1 [cpd 17, (E)-7-((3,7-dimethylocta-2,6-dien-1-yl)oxy)-2-oxo-2H-chromene-3-carboxylic acid]
CC50 (SiHa cells [1]): 11700 nM

CN(Cc1ccccc1)c1ccc2cc(C(=O)O)c(=O)oc2c1 [cpd 31, 7-(benzyl(methyl)amino)-2-oxo-2H-chromene-3-carboxylic acid]
IC50 (SiHa cells [3]): 11 nM | IC50 (SiHa cells [2]): 59 nM | CC50 (SiHa cells [1]): 220 nM | Tumor growth delay (tumor volume) (SiHa cells xenograft [4]): clear tumor growth delay | Tumor growth delay (tumor volume) (HCT116 cells xenograft): clear tumor growth delay | Delay in tumor relapse (tumor volume) (SiHa cells xenograft [5]): clear delay in tumor relapse

CCN(Cc1ccccc1)c1ccc2cc(C(=O)O)c(=O)oc2c1 [cpd 41, 7-(benzyl(ethyl)amino)-2-oxo-2H-chromene-3-carboxylic acid]
CC50 (SiHa cells [1]): 1900 nM
